Test results as given in article PMC4573928 (Cancer chemotherapy and pharmacology, 2015).
“And” between values parts separate entries of the source, which are not always exact repeats. Equal entries are not always repeated. “Also recorded” adds a separate entry of the source. Each block holds one molecule with its values, some of them ahead of it.

Assays:
[1] = cited from earlier work
[2] = Plasma pharmacokinetics of FdCyd, metabolites and THU in cynomolgus monkeys; details: for Detection of metabolites in plasma: four animals; for Concentrations, fold lower than those of parent FdCyd: PO FdCyd 1 h after 500 mg/kg PO THU; for Detection in plasma: PO FdCyd at 1 and 10 mg/kg 1 h after PO THU; for AUC(0-inf): AUC0-inf; for AUC(0-t): AUC0-t
[3] = Human pilot pharmacokinetic study of IV and PO FdCyd and THU; details: humans; after PO dosing; FC detected in 4 out of the 7 patients
[4] = system: cynomolgus monkeys; details: THU (500 mg/kg) and FdCyd (0.1, 1.0 or 10.0 mg/kg) PO QDx3 every week, 3 or 4 repeat 1 week cycles
[5] = monkeys, FdCyd 0.1 mg/kg PO 1 h after 500 mg/kg THU PO
[6] = both, cynomolgus monkey, plasma, iv, analyte FdCyd, FdCyd 8 mg/kg 3 h IV infusion with THU 30 mg/kg IV, N=2, mean (±SD)
[7] = both, cynomolgus monkey, plasma, po, 10 mg/kg, analyte FdCyd, FdCyd 10 mg/kg PO 1 h after THU 150 mg/kg PO, N=4, mean (±SD)
[8] = both, cynomolgus monkey, plasma, po, 10 mg/kg, analyte FdCyd, FdCyd 10 mg/kg PO 1 h after THU 500 mg/kg PO, N=4, mean (±SD)

Structure (SMILES): Nc1ncn([C@@H]2O[C@H](CO)[C@@H](O)[C@H]2O)c(=O)n1 [5-aza-cytidine]
- Chemical stability [1]: unstable

- FC in plasma ([2]; monkeys, 10 mg/kg FdCyd PO after 150 mg/kg THU PO): no FC was detected
- FC in plasma ([2]; monkeys, 10 mg/kg FdCyd PO after 150 mg/kg THU PO, listed as 5-FC): not after 150 mg/kg THU
- FC in plasma ([2]; monkeys, 10 mg/kg FdCyd PO with 500 mg/kg THU PO): Low levels of FC were also detected
- FC in plasma ([2]; monkeys, 10 mg/kg FdCyd PO with 500 mg/kg THU PO, listed as 5-FC): observed
- Detection of metabolites in plasma [2, 5]: No FU or FC was detected
- Overall maximum plasma concentration of FC observed [3]: 36.9 ng/mL
Structure (SMILES): Nc1nc(=O)[nH]cc1F [FC, 5-fluorocytosine]

- Detection of metabolites in plasma [2, 5]: No FU or FC was detected
- Concentrations, fold lower than those of parent FdCyd ([2]; monkeys): approximately 10 fold
- Detection in plasma ([2]; monkeys): detectable plasma concentrations
Structure (SMILES): O=c1[nH]cc(F)c(=O)[nH]1 [FU, 5-fluorouracil]

- FUrd peaks in plasma samples ([2]; any of the samples, detectable down to approximately 30 ng/mL): no FUrd peaks were detected
Structure (SMILES): O=c1[nH]c(=O)n([C@@H]2O[C@H](CO)[C@@H](O)[C@H]2O)cc1F [FUrd, 5-fluorouridine]

Structure (SMILES): Nc1nc(=O)n([C@H]2C[C@H](O)[C@@H](CO)O2)cc1F [FdCyd, 5-fluoro-2’-deoxycytidine]
- AUC(0-inf) [2, 6]: 17800 ng·h/mL
- AUC(0-t) [2, 6]: 17800 ng·h/mL
- Cmax [2, 6]: 5690 ng/mL
- Tmax ([2]; both, cynomolgus monkey, plasma, iv, Tmax, analyte FdCyd, FdCyd 8 mg/kg 3 h IV infusion with THU 30 mg/kg IV, N=2, mean (±SD)): 1.75 h
- half-life ([2]; both, cynomolgus monkey, plasma, iv, T½, analyte FdCyd, FdCyd 8 mg/kg 3 h IV infusion with THU 30 mg/kg IV, N=2, mean (±SD)): 0.87 h
- Tmax ([2]; both, cynomolgus monkey, plasma, po, 0.1 mg/kg, Tmax for FdCyd (mean), monkeys, FdCyd 0.1 mg/kg PO 1 h after 500 mg/kg THU PO): 0.25 h
- Tmax ([2]; both, cynomolgus monkey, plasma, po, 1 mg/kg, Tmax for FdCyd (mean), monkeys, FdCyd 1 mg/kg PO 1 h after 500 mg/kg THU PO): 0.5 h
- AUC(0-inf) [2, 7]: 1930 ng·h/mL
- AUC(0-inf) [2, 8]: 5400 ng·h/mL
- AUC(0-t) [2, 7]: 1870 ng·h/mL
- AUC(0-t) [2, 8]: 5280 ng·h/mL
- CL/F [2, 7]: 126 mL/min/kg
- CL/F [2, 8]: 53 mL/min/kg
- Cmax [2, 7]: 1180 ng/mL
- Cmax [2, 8]: 2030 ng/mL
- bioavailability ([2]; both, cynomolgus monkey, plasma, po, 10 mg/kg, F (PO bioavailability), analyte FdCyd, FdCyd 10 mg/kg PO 1 h after THU 150 mg/kg PO, relative to 4, 8, and 16 mg/kg FdCyd IV with 30 mg/kg THU): 8.9%
- bioavailability ([2]; both, cynomolgus monkey, plasma, po, 10 mg/kg, F (PO bioavailability), analyte FdCyd, FdCyd 10 mg/kg PO 1 h after THU 500 mg/kg PO, relative to 4, 8, and 16 mg/kg FdCyd IV with 30 mg/kg THU): 25%
- Tmax ([2]; both, cynomolgus monkey, plasma, po, 10 mg/kg, Tmax for FdCyd (mean), monkeys, FdCyd 10 mg/kg PO 1 h after 500 mg/kg THU PO): 1.38 h
- Tmax ([2]; both, cynomolgus monkey, plasma, po, 10 mg/kg, Tmax, analyte FdCyd, FdCyd 10 mg/kg PO 1 h after THU 150 mg/kg PO, N=4, mean (±SD)): 1.25 h
- Tmax ([2]; both, cynomolgus monkey, plasma, po, 10 mg/kg, Tmax, analyte FdCyd, FdCyd 10 mg/kg PO 1 h after THU 500 mg/kg PO, N=4, mean (±SD)): 1.38 h
- half-life ([2]; both, cynomolgus monkey, plasma, po, 10 mg/kg, T½, analyte FdCyd, FdCyd 10 mg/kg PO 1 h after THU 150 mg/kg PO, N=4, mean (±SD)): 1.23 h
- half-life ([2]; both, cynomolgus monkey, plasma, po, 10 mg/kg, T½, analyte FdCyd, FdCyd 10 mg/kg PO 1 h after THU 500 mg/kg PO, N=4, mean (±SD)): 0.63 h
- half-life ([2]; both, cynomolgus monkey, plasma, po, Plasma terminal half-life of FdCyd, monkeys, range over groups receiving 0.1, 1.0, and 10 mg/kg PO FdCyd 1 h after 500 mg/kg PO THU): 0.4 to 2.7 h
- clearance ([2]; both, cynomolgus, cynomolgus monkey, plasma, iv): ~15 mL/min/kg
- half-life ([2]; both, cynomolgus, cynomolgus monkey, plasma, iv, FdCyd half-life, monkeys, after IV FdCyd and THU administration, range): 0.367 to 0.933 h
- bioavailability ([2]; both, cynomolgus, cynomolgus monkey, plasma, po, FdCyd PO bioavailability after THU, monkeys, range, increased with increasing THU dose): 9 to 25%
- Plasma concentrations of FdCyd or downstream metabolites ([2]; monkeys, 10 mg/kg PO FdCyd without THU, 10 mg/kg): not detectable; also recorded: undetectable
- Detectable plasma concentrations of FdCyd (range per animal) ([2]; monkeys, FdCyd 0.1 mg/kg PO 1 h after 500 mg/kg THU PO, two of four animals): 22.6 to 117.2 ng/mL and 34.1 to 152.2 ng/mL
- Mortality and dose-limiting toxicity [4]: did not result in any mortality or any signs of dose-limiting toxicity

- Concentrations, fold lower than those of parent FdCyd ([2]; monkeys): approximately 10 fold
- Detection in plasma ([2]; monkeys): detectable plasma concentrations
Structure (SMILES): O=c1[nH]c(=O)n([C@H]2C[C@H](O)[C@@H](CO)O2)cc1F [FdUrd, 5-fluoro-2’-deoxyuridine]
- Detection of metabolites in plasma [2, 5]: three had detectable plasma concentrations of FdUrd out to 60 min

Structure (SMILES): Nc1ncn([C@H]2C[C@H](O)[C@@H](CO)O2)c(=O)n1 [decitabine]
- Chemical stability [1]: unstable
